Measurements from publication PMC6006164, “Natural cyclopeptide RA-V inhibits the NF-κB signaling pathway by targeting TAK1” (Cell Death & Disease, 2018).
Where “and” joins values, the source holds several entries; their conditions need not be identical. Equal values may be shown once.

System: NF-κB signaling pathway
Assay: NF-κB-dependent luciferase reporter (5×κB-luciferase/pTK-Renilla), TNF-α-induced, HEK293T cells
Assay type: cell-based
Settings: HEK293T screen, 24-well
Method: HEK293T or HeLa cells were seeded in 24-well plates and transiently transfected with the 5 × κB-luciferase and pTK-Renilla reporters using Lipofectamine 2000 (Invitrogen) for 18 h. The cells were then incubated with different concentrations of the compounds for the indicated times and subsequently stimulated with 10 ng/mL TNF-α for 2 h. The luciferase activity in the cell lysates was analyzed using the Dual Luciferase Reporter Assay System (Promega). The luciferase reporter assays were performed as previously described.
Supplementary Figure 1. RA-V has the best inhibitory effect on NF-κB signaling pathway among RAs. (a-b) HEK293T cells were transfected with the 5×κB-luciferase and pTK-Renilla reporters. Twenty-four hours after transfection, the cells were incubated with various concentrations of the indicated compounds for 6 h and then treated with 10 ng/ml TNF-α for 2 h before the luciferase activity assays. The data are presented as the means ± S.D. from three independent experiments. […]
Scheme for CB12 synthesis. (c) CB12 inhibited NF-κB reporter activity in a dose-dependent manner. The HEK293T cells were transfected with the 5×κB-luciferase and pTK-Renilla reporters. Twenty-four h after transfection, the cells were treated with various concentrations of CB12 for 6 h and then treated with 10 ng/ml TNF-α for 2 h before the luciferase activity assays. (d) […]
Supplementary Table 3: Screening data of small molecules
Category Parameter Description
Assay Type of assay Cell-based
Target NF-κB signaling pathway
Primary measurement Detection of Firefly luciferase enzyme activities and Renilla Luciferase expression
Key reagents 5 × κB-lucieferase and luciferase assay (Progema)
Assay protocol HEK293T cells were seeded in 24 -well plates and transiently transfected with 20 ng of 5×κB-luciferase and 2 ng of pTK-Renilla reporters using Lipofectamine
2000 (Invitrogen) for 18 h. The cells were then incubated with small molecules (10 μM) for 6 hours, and subsequently stimulated with 10 ng/ml TNF -α for 2 h. Luciferase activity of the cell lysates was analysed by the Dual Luciferase Reported Assay System
(Promega). The Firefly luciferase enzyme activities were determined for NF -κB signaling activities and normalized to Renilla Luciferase expression.
Library Library size approximately 200
Library composition natural and synthetic chemical compounds, including cyclopeptides, quinones and terpenes.
Source State Key Laboratory of Phytochemistry and Plant
Resources in West China, Kunming Institute of Botany, Chinese Academy of Sciences
Screen Format 24-well, Corning
Concentration(s) tested 10 μM
Reagent/ compound dispensing system Manual
Detection instrument and software Synergy 2 (BioTek)
Assay validation/QC Velcade inhibits NF-κB signaling pathway
Normalization The Firefly luciferase enzyme activities were normalized by Renilla Luciferase expression
Post-HTS analysis Hit criteria κB-luc/ Renilla ratio < 0.5 standard deviations from the […]
Hit rate Approximately 15%
Confirmation of hit purity and structure Compounds were verified by HPLC and NMR

Molecule	NF-κB signaling pathway (plate control, assay validation)
CC(C)C[C@H](NC(=O)[C@H](Cc1ccccc1)NC(=O)c1cnccn1)B(O)O [Velcade, Bortezomib, reference compound]	inhibits

Same assay, conditions: HEK293T; compounds 6 h, then 10 ng/ml TNF-α 2 h; means of three independent experiments; read-out: IC50 (μM), NF-κB reporter activity

Molecule	IC50
Rubiyunnanin C	> 15 µM
RA-XXIV	11.9 µM
RA-VII	0.089 µM
O-seco-RA-V	> 15 µM
Rubiyunnanin E	> 15 µM
Rubiyunnanin D	> 15 µM
Rubiyunnanin H	> 15 µM
RA-XI isoform 2	> 15 µM
Rubiaschumanin B	3.88 µM
Rubiyunnanin A	> 15 µM
Rubiyunnanin G	> 15 µM

The remaining lines, values ahead:

IC50	Molecule
1.85 µM	RA-XII
1.1 µM	RA-III
> 15 µM	Rubiaschumanin A
2.06 µM	C-6β-oxy-RA-IV
1.31 µM	RA-I
> 15 µM	RA-XIII
10.6 µM	RA-IV
> 15 µM	Rubiyunnanin I
6.87 µM	Rubicordifolin C
> 15 µM and 15.1 µM	Rubiyunnanin B
> 15 µM	RA-XIII-OMe
3.41 µM	Rubicordifolin A
> 15 µM	Rubiaschumanin C
> 15 µM and 19 µM	RY-II
> 15 µM	Rubiyunnanin F
> 15 µM	RA-XI isoform 1

Target: T1, TAK1 (Homo sapiens, UniProt O43318)
T1 construct: expressed in transfected cells; host or cells: HEK293T
T1 sequence (O43318 1-579 isoform O43318-2): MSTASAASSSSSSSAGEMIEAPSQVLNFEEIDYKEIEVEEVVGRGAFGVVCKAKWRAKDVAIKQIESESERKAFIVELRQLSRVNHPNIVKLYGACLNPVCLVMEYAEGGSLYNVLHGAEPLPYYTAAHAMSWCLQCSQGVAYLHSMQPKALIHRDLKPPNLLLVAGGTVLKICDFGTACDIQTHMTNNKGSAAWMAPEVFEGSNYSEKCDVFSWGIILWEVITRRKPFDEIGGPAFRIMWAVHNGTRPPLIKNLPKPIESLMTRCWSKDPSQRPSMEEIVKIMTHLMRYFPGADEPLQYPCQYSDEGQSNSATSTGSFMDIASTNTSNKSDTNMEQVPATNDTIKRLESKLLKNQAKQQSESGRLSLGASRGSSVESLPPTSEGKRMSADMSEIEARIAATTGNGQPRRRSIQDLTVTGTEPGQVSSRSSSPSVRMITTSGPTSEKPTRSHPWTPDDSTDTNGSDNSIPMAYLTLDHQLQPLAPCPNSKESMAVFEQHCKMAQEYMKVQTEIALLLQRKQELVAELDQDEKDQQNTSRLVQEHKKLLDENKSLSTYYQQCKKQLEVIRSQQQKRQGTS
Assay: Streptavidin agarose pull-down with biotin-tagged probe CB12
Assay type: binding
Settings: lysates of HEK293T transfected with TAK1; RA-V in 10-fold excess
Method: HEK293T cells were transfected with TAK1 for 24 h, then the cell lysates were incubated with biotin or CB12 followed by streptavidin agarose pull-down. […] HEK293T cells were transfected with the indicated plasmids for 24 h. The cell lysates were pulled down with streptavidin agarose and then immunoblotted with HA or Flag antibody. Each experiment was repeated at least three times
HEK293T cells were transfected with TAK1-N or TAK1-C for 24 h. The cells lysates were incubated with CB12 or biotin and precipitated with streptavidin-coated sepharose and were analyzed by immunoblotting with Flag antibody. b The model for RA-V binding to the crystal structure of the TAK1–TAB1 fusion protein (PDB 4GS6). […] HEK293T cells were transfected with TAK1 for 24 h, and then the cell lysates were incubated with biotin or CB12 before precipitation with streptavidin agarose. […] HeLa cells were incubated with various concentrations of RA-V for 12 h and then treated with 10 ng/mL TNF-α for 10 min. The cell lysates were prepared and western blotted with the indicated antibodies. Each experiment was repeated at least three times
HEK293T cells were harvested and lysed in RIPA buffer with protease inhibitors. […] The samples were separated by SDS-PAGE, and the bound proteins were detected using the indicated antibodies.

Molecule	competition with the CB12–TAK1 interaction (pull-down)
COc1cc(O)c2c(c1)/C=C/C[C@H](O)[C@H](O)C(=O)/C=C\C[C@H](C)OC2=O [(5Z)-7-Oxozeaenol, reference compound]	effectively competed
